Tests used:
[1] = test system: STZ-induced diabetic mice; experiment: In vivo hypoglycemic study, blood glucose after oral gavage in STZ-induced diabetic mice; parameters: species or system male C57BL/6JNarl mice
Method: Diabetes was induced in male C57BL/6JNarl mice (8 weeks age, around 20 grams body weight) by two tail vein injections of streptozotocin (STZ) (first: 75 mg/kg, second: 150 mg/kg). Induction of diabetes in mice was verified by measuring glucose concentration in a blood sample that was obtained from the tail vein. […] An composition containing 200 IU/kg of insulin was administered by oral gavage to each of eight STZ-induced diabetic mice in three groups (i.e., 24 mice total). A first group each received free non-modified insulin suspended in about 160-230 microliters (depending on animal weight) of a 3.78% (w/w) NaHCO3 antacid solution. A second group each received insulin in the form of Formulation 1 suspended in about 160-230 microliters of phosphate-buffered saline (PBS). A third group received Formulation 1 insulin in the form of Formulation 1 suspended in about 160-230 microliters of a 3.78% (w/w) NaHCO3 antacid solution (i.e., a ten-fold dilution of Formulation 1). […] Blood samples were drawn from each mouse following gavage, and blood glucose levels in those samples were determined. […] Drug remaining in the formulation was analyzed, and in vivo potency was also assessed by administering insulin formulation into streptozotocin-induced diabetic mice and measuring blood glucose with a glucometer.

Method for Caco-2 cell monolayers: Caco-2 cells were cultured at 37±2 degrees Celsius in minimum essential medium (MEM) with Eagles salt and 1-glutamine supplemented with 15% fetal bovine serum, with 1% of non-essential amino acid, and with 1% of antibiotic-antimycotic in a incubator under a 5% carbon dioxide atmosphere to simulate intestinal lining cells.
At time zero, medium on one face of the cell monolayer was replaced by 0.5 milliliter of a solution that included one of Formulation 1, 2, or 3 or of insulin not incorporated into a SMEDDS-containing formulation. The solution was diluted ten-fold with medium (i.e., one part insulin-containing solution and nine parts buffer) prior to application to the monolayer. Thirty minutes following this replacement, insulin content at the basolateral face of the monolayer was analyzed by HPLC. The permeability coefficient (Papp) was calculated from the following equation: Papp=(dQ/dt)/(C0×area), where dQ/dt is the linear appearance rate obtained from the profile of the transported amount of the substrate against the time (measured in micrograms per second); C0 is a measured initial concentration in the donor compartment (measured in micrograms per milliliter), and “area” is the membrane surface area of the cell monolayer.

free insulin: non-modified human insulin not combined with a SMEDDS-containing composition
trans-monolayer transport of insulin (Caco-2 cell monolayers): No trans-monolayer transport
blood glucose levels at any time point ([1]; 200 IU/kg free insulin solution by oral gavage): No significant differences in the blood glucose levels
blood glucose levels over study period ([1]; 200 IU/kg oral gavage, free insulin in 3.78% NaHCO3 antacid solution): did not vary significantly
